Data published in patent publication US10550388B2, “Targeting pleiotrophin signaling to limit high-grade glioma invasion” (The Board of Trustees of the Leland Stanford Junior …, priority 2017, dated 2020).
Entries after “also recorded” stand apart in the source; their conditions may differ.

Legend:
SU-DIPG-XIII FL cells [1] = experiment: Matrigel invasion assay (Boyden chamber) of DIPG cells; format: cell-based, human; conditions: DIPG cells expressing the shRNA; for DIPG invasion toward SVZ hNPC CM or the PTN complex: vs scrambled control; for baseline DIPG invasion toward unconditioned hNPC media: vs scrambled shRNA
Protocol: To test for chemoattraction and invasion toward neural precursor cell conditioned media or another candidate chemoattractant, a single-cell suspension of 100,000 DIPG cells in Tumor Stem Media (TSM) base (with B27 (−A) and heparin, without growth factors) was seeded in the top inserts of BioCoat growth factor reduced Matrigel invasion chambers (Corning, Bedford, Mass.), after rehydration of the inserts. Chemoattractant media was added to the bottom of the chamber. All conditions were plated in triplicate. After 72 hours, media was aspirated, and the non-invading cells on top of the layer of Matrigel were scrubbed off. The invading cells were fixed in 4% paraformaldehyde and then stained with 0.1% crystal violet in 10% methanol in distilled water. The number of invading cells was quantified by the intensity of the crystal violet dye on the invading side of the Matrigel. The dye was collected in 10% acetic acid, and absorbance was measured at 595 nm.
To test the ROCK or HSP90 inhibitors in the Matrigel invasion assay, the inhibitors were added to the suspension of glioma cells in TSM base (with B27 (−A) and heparin) seeded in the top inserts at the appropriate concentrations, and neural precursor cell conditioned media was plated in the bottom chambers. The rest of the procedure was performed as described above.

SU-DIPG-XIII FL cells [2] = experiment: CellTiter-Glo cell viability assay; format: cell-based, human; conditions: base media without growth factors, vs scrambled control or no shRNA
Protocol: To assess cell viability, 5,000 DIPG cells per well were seeded in base media or full growth media in a 96-well plate. Inhibitors were added at the appropriate concentrations. After 72 hours, CellTiter-Glo reagent 2.0 was added at a 1:1 ratio, and cells were lysed. Luminescence was measured after stabilization of signal for 10 minutes at room temperature.

PTPRZ1 = experiment: Knockdown of PTPRZ1 in DIPG cells (qPCR, Western blot); format: cell-based, human; conditions: vs scrambled shRNA control or no shRNA; for PTPRZ1 gene expression: qPCR
Protocol: Samples were run on Bio-Rad Mini-Protean TGX precast gels (Bio-Rad, Hercules, Calif.), and the protein was transferred onto polyvinylidene fluoride (PVDF) membranes. Membranes were blocked with 5% bovine serum albumin (BSA) in TBST for 1 hour, and incubated in primary antibodies diluted in 1% BSA/TBST overnight at 4° C. Primary antibodies used were: mouse anti-pleiotrophin (1:100; Santa Cruz Biotechnology, Santa Cruz, Calif.), goat anti-SPARC (1:100; R&D Systems, Minneapolis, Minn.), goat anti-SPARCL1 ([…]; R&D Systems, Minneapolis, Minn.), rabbit anti-HSP90B (GeneTex, Irvine, Calif.), rabbit anti-GRP78 (1:500, Abcam, Cambridge, Mass.), rabbit anti-PTPRZ (Thermo Fisher, Waltham, Mass.), and rabbit beta-actin (1:2000; Cell Signaling, Danvers, Mass.). Secondary antibodies conjugated to horseradish peroxidase (HRP) were added for 1 hour at room temperature. Secondary antibodies used were: goat anti-rabbit IgG-HRP (Cell Signaling, Danvers, Mass.), horse anti-mouse IgG-HRP (Cell Signaling, Danvers, Mass.), and donkey anti-goat IgG-HRP (Santa Cruz Biotechnology, Santa Cruz, Calif.). Proteins were visualized using Clarity Western ECL Substrate (Bio-Rad, Hercules, Calif.).
Cells or tissue were lysed and homogenized in TRIzol Reagent (Life Technologies, Carlsbad, Calif.) and RNA was extracted according to reagent protocol. RNA was treated with dsDNase, and cDNA was synthesized using Thermo Scientific Maxima First Strand cDNA Synthesis Kit for RT-qPCR with dsDNase (Thermo Fisher Scientific K1671). RT-PCR was performed on Eppendorf Mastercycler Realplex2 using Universal SYBR Green Supermix (BioRad, Hercules, Calif.). Differential expression was determined using the deltaCt method. Primers used were as follows: […]
For lentiviral infection, DIPG cells or neural precursor cells were exposed to shRNA-expressing lentivirus for 16 hours. Puromycin was added 48 hours after infection to select for virally infected cells. After removal of puromycin, shRNA-treated neural precursor cells were grown for 7 days (with addition of media on day 3-4) for generation of conditioned media. […]

SU-DIPG-XIII FL cells [3] = experiment: Orthotopic xenograft of PTPRZ1 knockdown DIPG cells; format: in vivo, NSG mice; conditions: knockdown cells xenografted to the pons, vs scrambled shRNA control cells; for DIPG cells invading the SVZ: 8 weeks following xenograft
Protocol: (§1) NSG mice at age P34-36 were orthotopically xenografted with SU-DIPG-XIII frontal lobe CMV-GFP-luciferase cells, in a similar procedure to as previously described (Grasso et al., supra; Venkatesh et al. (2015) Cell 161, 803-816). Briefly, a single-cell suspension of SU-DIPG-XIII frontal lobe CMV-GFP-luciferase cells at passage 16-19 was prepared in sterile HBSS immediately before beginning the xenograft procedure. 600,000 cells in 3 μL were stereotactically injected into the pons of the left hemisphere of NSG mice, through a 31-gauge burr hole. Stereotactic coordinates used were: 1 mm lateral to midline, 0.8 mm posterior to lambda suture, and 5 mm deep. Cells were injected at a rate of 0.4 μL/min using a digital pump and a 31-gauge Hamilton syringe. After infusion of cells, the syringe needle was kept in place for 2 minutes, and then withdrawn manually at a rate of 0.875 mm/min to minimize the backflow of cells.
(§2) Mice were imaged using an IVIS Spectrum to ensure tumor engraftment and monitor tumor size. Mice were anesthetized under 1% isoflurane, intraperitoneally injected with luciferin (15 mg/kg), and imaged for bioluminescence every minute until the peak total flux was reached.
For lentiviral infection, DIPG cells or neural precursor cells were exposed to shRNA-expressing lentivirus for 16 hours. Puromycin was added 48 hours after infection to select for virally infected cells. After removal of puromycin, shRNA-treated neural precursor cells were grown for 7 days (with addition of media on day 3-4) for generation of conditioned media. After removal of puromycin, shRNA-treated DIPG cells were grown for at least one passage before experimental use.

RhoA = experiment: G-LISA RhoA activation assay in DIPG cells; format: cell-based, human; conditions: DIPG cells expressing the shRNA exposed to SVZ hNPC CM or the PTN complex; vs scrambled shRNA
Protocol: (§3) SU-DIPG-XIII frontal lobe cells were starved in TSM base (without B27 (−A) supplement, heparin, or growth factors) for 48 hours prior to treatment. After treatment, cells were lysed in the RhoA activation assay kit cell lysis buffer (Cytoskeleton, Denver, Colo.). Lysates were incubated on ice for 1 minute, clarified by centrifugation at 10,000×g, 4° C. for 1 minute, and the supernatants were snap-frozen and stored immediately at −80° C. Protein concentrations were measured by the BCA protein assay (Thermo Scientific, Waltham, Mass.), and samples were diluted to 0.5 mg/mL by the addition of cell lysis buffer.
RhoA activation assays were performed using the G-LISA RhoA absorbance-based activation assay (Cytoskeleton, Denver, Colo.). Lysate samples were incubated in a 96-well plate with pre-linked Rho GTP-binding protein for 30 minutes at 4° C. shaking at 400 rpm. Wells were incubated in anti-RhoA primary antibody (1:250) at room temperature for 45 minutes shaking at 400 rpm. Secondary HRP-labeled antibody (1:62.5) was added at room temperature for 45 minutes shaking at 400 rpm. Results were visualized by addition of HRP detection reagents for 12 minutes at 37° C., and the absorbance was read at 490 nm. All assays were performed in triplicate.

ROCK = experiment: Rho-associated kinase (ROCK) activity assay in DIPG cells; format: cell-based, human; conditions: DIPG cells expressing the shRNA exposed to SVZ hNPC CM or the PTN complex; vs scrambled shRNA
Protocol: as §3
ROCK activation assays were performed using the Rho-associated kinase (ROCK) activity assay (Millipore, Bedford, Mass.). Cell lysates were incubated in wells of a myosin phosphatase target subunit 1 (MYPT1) pre-coated 96-well plate, for 30 minutes at 30° C. with moderate shaking. Wells were incubated in anti-phospho-MYPT1(Thr696) primary antibody (1:1000) for 1 hour with moderate shaking. Goat anti-rabbit IgG HRP secondary antibody (1:2000) was added for 1 hour with moderate shaking. Results were visualized with TMB/E substrate, incubating in the dark for 10 minutes, and absorbance was read at 450 nm. All assays were performed in triplicate.

SU-DIPG-XIII FL cells [4] = experiment: shRNA-expressing lentivirus injected into the SVZ of orthotopically xenografted mice; format: in vivo, NSG mice; conditions: vs scrambled shRNA control; for DIPG cells invading the SVZ: 16 weeks following pontine xenograft
Protocol: as §1
(§4) Mice used for shRNA lentivirus studies received shRNA-expressing lentivirus in the SVZ at P27-29 and DIPG cells in the left pons at P34-36. For lentiviral injections, 2 μL of shRNA-expressing lentivirus were stereotactically injected into the SVZ. Stereotactic coordinates used were: 1.3 mm lateral to midline, 0.1 mm posterior to bregma suture, and 2 mm deep. Virus was injected and the needle was withdrawn according to the same procedure as described above.
as §2
For quantification of DIPG invasion of the SVZ after knock down of targets in the SVZ, 5 NSG mice per group were injected with shRNA-expressing lentivirus in bilateral SVZs and orthotopically xenografted with SU-DIPG-XIII FL in the left pons. Mice were perfused for analysis 16 weeks after xenograft. A 1:6 series of coronal slices from each mouse brain was immunostained and imaged, and the number of GFP^+ HNA^+ glioma cells within 200 μm of the lateral ventricles in all slices containing lateral ventricles was manually counted.
For quantification of neural stem/precursor cells in the SVZ after knock down of PTN in the SVZ, a 1:6 series of coronal slices from each mouse was immunostained and imaged, and the number of Sox2^+ neural stem/precursor cells in a 20×Z-stack was manually counted. The density of Sox2^+ cells was calculated as cells/mm^3.

HSP90B = experiment: Knockdown of HSP90B expression in the mouse SVZ; format: in vivo; conditions: lentivirus injected into the SVZ; vs scrambled shRNA control
Protocol: as §4
Mice were intraperitoneally injected with Avertin (tribromoethanol) for anesthesia, and then transcardially perfused with 20 mL of ice-cold PBS. Brains were dissected out and fixed in 4% paraformaldehyde in PBS overnight at 4° C., and were then transferred to 30% sucrose in PBS for cryoprotection. Brains were embedded in Tissue-Tek O.C.T. (Sakura, Torrance, Calif.). Brains from mice older than P10 were sliced into 40 μm coronal or sagittal sections using a sliding microtome (Microm HM450; Thermo Scientific, Waltham, Mass.). Brains from mice age P0 to P10 were sliced into 25 μm coronal sections using a cryostat (Leica Biosystems CM3050 S; 1058 Wetzlar, Germany). For immunohistochemistry, a 1 in 6 series of 25 μm or 40 μm sections was incubated in blocking solution (3% normal donkey serum, 0.3% Triton X-100 in TBS) at room temperature for 1 hour. […]

[5] = listed as shRNA lentivirus targeting PTPRZ1
[6] = listed as shRNA-expressing lentivirus targeting the HSP90B1 gene

PTPRZ1 shRNA: lentivirus-expressed shRNA against human PTPRZ1, Sigma TRCN0000356374, SEQ ID NO: 13 (CCGGATACCTAAGTCTTCGTTAATACTCGAGTATTAACGAAGACTTAGGTATTTTTTG)
DIPG invasion toward SVZ hNPC CM or the PTN complex (SU-DIPG-XIII FL cells [1]): partial abrogation of invasion
DIPG invasion toward SVZ hNPC CM or the PTN complex (SU-DIPG-XIII FL cells [1]; [5]): partially abrogates DIPG invasion
baseline DIPG invasion toward unconditioned hNPC media (SU-DIPG-XIII FL cells [1]): substantially decreases baseline invasion
baseline DIPG invasion toward unconditioned hNPC media (SU-DIPG-XIII FL cells [1]; [5]): decrease in baseline DIPG invasion
cell viability of DIPG cells expressing the shRNA (SU-DIPG-XIII FL cells [2]): mildly decreases cell viability
cell viability of DIPG cells expressing the shRNA (SU-DIPG-XIII FL cells [2]; [5]): mild decrease in cell viability
PTPRZ protein levels (PTPRZ1; Western blot): effective knock down
PTPRZ1 gene expression (PTPRZ1): Robust shRNA-mediated knockdown of PTPRZ1 expression
PTPRZ1 gene expression (PTPRZ1; [5]): effective knock down of PTPRZ1 gene expression
DIPG cells invading the SVZ (SU-DIPG-XIII FL cells [3]): significantly fewer cells expressing PTPRZ1 shRNA reached the SVZ
DIPG cells invading the SVZ (SU-DIPG-XIII FL cells [3]; [5]): fewer DIPG cells with knockdown of PTPRZ1 invaded the SVZ
decrease of total tumor size (engraftment), bioluminescent signal on initial IVIS imaging (SU-DIPG-XIII FL cells [3]): 10 fold
tumor growth over time (SU-DIPG-XIII FL cells [3]): rate of growth was similar
RhoA activation (RhoA): abrogation of RhoA and ROCK activation; also recorded: decreased activation of RhoA and ROCK
ROCK activation (ROCK): abrogation of RhoA and ROCK activation; also recorded: decreased activation of RhoA and ROCK

sh-HSP90B1: lentivirus-expressed shRNA against mouse HSP90B1, Sigma TRCN0000071925, SEQ ID NO: 12 (CCGGGCTATTCAGTTGGATGGGTTACTCGAGTAACCCATCCAACTGAATAGCTTTTTG)
DIPG cells invading the SVZ (SU-DIPG-XIII FL cells [4]): fewer orthotopically xenografted GFP^+ HNA^+ SU-DIPG-XIII FL cells invaded the SVZ
DIPG cells invading the SVZ (SU-DIPG-XIII FL cells [4]; [6]): fewer DIPG cells invading the SVZ
tumor engraftment (bioluminescent flux) (SU-DIPG-XIII FL cells [4]; listed as shRNA lentivirus targeting HSP90B1): equivalent
tumor engraftment (bioluminescent flux) (SU-DIPG-XIII FL cells [4]; [6]): no effect on initial tumor engraftment
HSP90B expression in the SVZ (HSP90B): low HSP90B expression after knockdown
